Results: patent US20220040141A1, “ULTRAPURE PHENOL COMPOSITIONS” (priority 2018, published 2022)

Experiments:
[1] = Physical properties of CBD and its oil compositions; format: physicochemical; settings: isolate powder, about 99% pure CBD
Excerpt: The highest purity CBD is known as an isolate. The clear oil, or distillate, goes through another purification process, where it is converted into powder using a solvent, for example, hexane, at low heat.
(§1) By mixing with fractionated coconut oil, or medium-chain triglyceride (MCT), a stable emulsion can be formed, which simplifies oral administration of CBD. Some products can mix the full spectrum CBD oil with alcohol or MCT oil, which is known as a tincture. […] For example, a batch of CBD/MCT oil was made using a ratio of 100 mg/ml, which allowed delivery as a spray to the mouth of 20 mg CBD per spray (one spray per serving). In another experiment, a second batch of oil targeted at 33 mg/ml, which targeted 6-7 mg per spray (2-3 sprays per serving). Performance can continue to be less impressive than the CBD powder.

[2] = Earlier CBD products (isolate powder, liquid CBD/vitamin E mixture, MCT emulsion) as used orally; format: in vivo; settings: particularly relieving stiffness in joints
Excerpt: Prior to preparing the compositions described herein, other CBD products were made, which include food products, including beverages, and mixtures with multiple components, such as an oil/liquid form that is taken directly from a dropper. The products can be flavored. A CBD isolate powder, which is a high purity CBD, can have powerful, and instant benefits. A water soluble CBD/vitamin E mixture can be included in food and drink such as cold pressed juice. […] However, the powder was difficult to work with and dose.
as §1

[3] = increase of 1 mMol in plasma caprylic acid levels; cited from earlier work

| SMILES | water solubility [1] | anti-inflammatory effect [2] | increase of ketone body production [3] |
| --- | --- | --- | --- |
| C=C(C)[C@@H]1CCC(C)=C[C@H]1c1c(O)cc(CCCCC)cc1O [CBD isolate powder, cannabidiol] | not water soluble | exhibited anti-inflammatory properties | – |
| CCCCCCCC(=O)O [caprylic acid] | – | – | five-fold |
